In patent publication US9476017B2, “Compositions and methods for cleaning, disinfecting, and sanitizing that are effluent neutral” (Diversey, Inc, priority 2012, dated 2016):
Where two headings read alike, the source gives them in different places.

Assays:
Saccharomyces cerevisiae = assay: Yeast growth test (Example 6); type: cell-based; settings: supplement at concentrations above 10 ppm; 30° C.; compared to control without supplements
Procedure: These experiments were used to investigate whether potential residues of cleaning formulations described herein have any impact on the growth or metabolism of a fermentative yeast cell. Saccharomyces cerevisiae was selected as a typical member of fermenting yeasts. Malt extract agar tubes with an angular surface were used to grow starter cultures. Two globules that were covered with Saccaromyces cerevisiae (from a freeze culture collection DSM 1333) were streaked onto an agar surface and incubated at 30° C. for 3 days. Yeast colonies were grown, transferred to liquid growth media and incubated for 15-20 hours at 30° C. A second transfer was conducted into fresh liquid medium. The grown medium was transferred into closed, sterile tubes and centrifuged for 20 minutes at 8000 G. The liquid was decanted and the pellets collected in 10 mL of sterile Ringer solution. A Thoma Hemocytometer was prepared. Cells of 4 squares across were counted. Counted numbers from 4 squares were averaged and cell concentrations were calculated. The concentration of cells in the original mixture=number of cells counted*10^6=cells/mL. Dilutions were made to reach final cell concentration of 1×10^6/mL in culture medium. […] Start extinction was measured at 578 nm with help of a spectrophotometer. […] Every 1 to 2 hours samples were taken and extinctions were measured. […] The difference ∂ of extinction to start was calculated. […]

[1] = Procedure: Formulation B was combined with three sanitizing additives hydrogen peroxide (i.e., “peroxide”), peracetic acid (PAA) and chlorine dioxide. Testing was conducted at 80° C. to simulate CIP tank conditions. Ferment soil was added to the tests to further simulate real conditions.
fermentative wild yeasts = assay: Efficiency against fermentative wild yeasts; type: cell-based; settings: all temperatures, 20 minutes or longer
Procedure: (§1) Testing was done according to test protocols EN 1276 and EN 1650. Formulation B and Formulation D (a peracetic acid-based formulation) were tested separately and in combination. Formulation B was also tested in combination with hydrogen peroxide. Tests were run at 20°, 40° C. and 60° C. in the presence of 1% ferment soil at contact times of 10, 20 and 30 minutes. Kill rates are expressed as log reductions.
At 20° C. and 40° C., 0.28% peroxide […] was ineffective on Lactobacilli. The higher kill rate at 60° C. is mainly due to temperature.

Lactobacillus brevis = assay: Efficiency against Lactobacillus brevis, EN 1276; type: cell-based
Procedure: as §1

SMILES: [Na+].[OH-] [Caustic Soda, sodium hydroxide]
- S. cerevisiae cell growth (Saccharomyces cerevisiae): significantly decreased or even inhibited

SMILES: [O][Cl+][O-] [Chlorine dioxide, chlorine dioxide]
- stability ([1]; 10 ppm, 80° C., ferment soil): very unstable

SMILES: CC(=O)OO [Peracetic acid, peracetic acid]
- effectiveness (fermentative wild yeasts; 0.15% (225 ppm PAA)): very effective
- effectiveness (fermentative wild yeasts; 0.3% (450 ppm)): very effective
- effectiveness (Lactobacillus brevis; 0.3% (450 ppm), all temperatures, 20 minutes or longer): very effective
- stability ([1]; in Formulation B and ferment soil, versus high alkaline solutions): better stability
- half life ([1]; in the presence of Formulation B, 80° C., ferment soil): > 30 min

SMILES: OO [hydrogen peroxide]
- effectiveness (Lactobacillus brevis; 0.28% (1000 ppm), at 20° C. and 40° C.): ineffective
- effectiveness (Lactobacillus brevis; 1.4% (5000 ppm), at 40° C. and 20 minute contact times): became effective
